Test results published in patent US12320799B2, “Methods of measuring signaling pathway activity for selection of therapeutic agents” (Celcuity Inc., priority 2017, dated 2025).

How the values were obtained:
Type in all cases: cell-based, human
[1] = tested on: IGFR signaling pathway; assay: CELx multiple pathway test, impedance biosensor cell adhesion, IGF/Linsitinib pair; conditions: activator IGF
Description: (§1) Biosensor and transducer: A 96-well impendence E-Plate (ACEA, San Diego, CA) was placed onto an xCELLigence RTCA MP Station impendence biosensor (ACEA, San Diego, CA). The biosensor measured simultaneously the impedance of every well. The change in impedance for a particular well is proportional to the number of cells and type of attachment the cells have with the impedance microplate. Changes in impedance indicate a response to perturbation of these small cell populations. Coatings: The 96-E-Plate were wells were coated with fibronectin and or collagen. Collagen is purchased from Advanced BioMatrix (Carlsbad, CA) and fibronectin from Sigma-Aldrich (St. Louis, MO). Tissue and cell samples: A total of 18 samples of human tumor cells from breast, lung, colon, ovarian, kidney, bladder cancer were studied. For each of these six different cancer types, tumor cell samples from three different patients were tested. Any biomarkers that are used to guide selection of targeted therapy are listed in Table 18 for each patient if they were present. Signaling Pathways activator agent and targeted therapeutic pairs: Eleven different signaling pathways were studied in each human tumor cell sample using […] signaling pathway activator agent and targeted therapeutic pairs. Each of the signaling pathway activator agent and targeted therapeutic pairs affect the same signaling pathway. Each of the signaling pathway activator agents is a well-characterized and specific agonist of its associated signaling pathway and each of the targeted therapeutic agents is a well-characterized and specific antagonist of the same associated signaling pathway. The signaling pathway activator agents and targeted therapeutics used to characterize the activity level of the associated signaling pathway are summarized in Table 16 below:
(§2) Other Reagents: Standard media antibiotics (e.g. penicillin, streptomycin) and other buffers were purchased and used as delivered from ATCC (Manassas, VA, USA) or Life Technologies (Grand Island, NY). Procedure: For each test of a patient cell sample with a pair of signaling pathway activator and targeted therapeutic agents, six wells were seeded with approximately 15,000 cells in 120 uL culture media. Twenty microliters of the targeted therapeutic agent were added to two wells of each patient's cells and 20 microliters of standard media were added to the other four wells for each patient 18 hours in advance of addition of the signaling pathway activator agent. Signaling pathway stimulation was initiated with the addition of 20 ul of the signaling pathway activator agent in the two wells that received a targeted therapeutic agent and in two additional wells for each patient's set of cells without the targeted therapeutic. The impedance recording of attachment and adhesion change was performed at 37° C., 5% C02. Data was recorded on a continuous basis throughout the test, where the data presented is from the initial baseline level of cell attachment compared to the subsequent effects following the targeted therapeutic agent and the signaling pathway activator agent additions on the 18 different patient samples. Results:
(§3) Table 17 presents the results, expressed as an output value, for each of the 167 tests performed using the methods described above. For each of the 18 patient samples, up to 11 different signaling pathways were tested. The output value represents the difference between the amount of cell adhesion change resulting from addition of the signaling pathway activator agent and the amount of cell adhesion change resulting from addition of the targeted therapeutic agent.

[2] = tested on: c-MET/HGF signaling pathway; assay: CELx multiple pathway test, impedance biosensor cell adhesion, HGF/SGX-523 pair; conditions: activator HGF
Description: as §1
as §2, with “samples.” for “samples. Results:”
as §3, with “For” for “Table 17 presents the results, expressed as an output value, for each of the 167 tests performed using the methods described above. For”

[3] = tested on: FGFR signaling pathway; assay: CELx multiple pathway test, impedance biosensor cell adhesion, FGF/BGJ398 pair; conditions: activator FGF
Description: as §1, §2, §3

[4] = tested on: EGFR signaling pathway; assay: CELx multiple pathway test, impedance biosensor cell adhesion, EGF/Neratinib pair; conditions: activator EGF
Description: as §1
as §2, with “samples.” for “samples. Results:”
as §3, with “For” for “Table 17 presents the results, expressed as an output value, for each of the 167 tests performed using the methods described above. For”

[5] = tested on: HER3 signaling pathway; assay: CELx multiple pathway test, impedance biosensor cell adhesion, NRG1/Neratinib pair; conditions: activator NRG1
Description: as §1, §2, §3

## C[C@]1(O)C[C@@H](c2nc(-c3ccc4ccc(-c5ccccc5)nc4c3)c3c(N)nccn32)C1 [Linsitinib]
[1]; C2 breast tumor cells
  output value: 20
[1]; C21 breast tumor cells
  output value: 69
[1]; C23 lung tumor cells
  output value: 32
[1]; C24 lung tumor cells
  output value: −61
[1]; C25 lung tumor cells
  output value: −44
[1]; C34 breast tumor cells
  output value: 34
[1]; C54 ovarian tumor cells
  output value: −8
[1]; C62 colorectal tumor cells
  output value: 6
[1]; C69 ovarian tumor cells
  output value: −111
[1]; C71 colorectal tumor cells
  output value: −2
[1]; C72 colorectal tumor cells
  output value: −22
[1]; C77 ovarian tumor cells
  output value: 56
[1]; C81 bladder tumor cells
  output value: 351
[1]; C82 bladder tumor cells
  output value: 21
[1]; C87 bladder tumor cells
  output value: 210
[1]; C88 kidney tumor cells
  output value: 143
[1]; C90 kidney tumor cells
  output value: −607
[1]; C92 kidney tumor cells
  output value: 73

## Cn1cc(-c2ccc3nnc(Sc4ccc5ncccc5c4)n3n2)cn1 [SGX-523]
[2]; C2 breast tumor cells
  output value: 0
[2]; C21 breast tumor cells
  output value: 222
[2]; C23 lung tumor cells
  output value: 469
[2]; C24 lung tumor cells
  output value: 78
[2]; C25 lung tumor cells
  output value: 132
[2]; C34 breast tumor cells
  output value: 6
[2]; C54 ovarian tumor cells
  output value: 123
[2]; C62 colorectal tumor cells
  output value: −6
[2]; C69 ovarian tumor cells
  output value: −27
[2]; C71 colorectal tumor cells
  output value: 53
[2]; C72 colorectal tumor cells
  output value: −110
[2]; C77 ovarian tumor cells
  output value: 227
[2]; C81 bladder tumor cells
  output value: 419
[2]; C82 bladder tumor cells
  output value: 41
[2]; C87 bladder tumor cells
  output value: 28
[2]; C88 kidney tumor cells
  output value: −13
[2]; C90 kidney tumor cells
  output value: 368
[2]; C92 kidney tumor cells
  output value: 154

## CCN1CCN(c2ccc(Nc3cc(N(C)C(=O)Nc4c(Cl)c(OC)cc(OC)c4Cl)ncn3)cc2)CC1 [BGJ398]
[3]; C2 breast tumor cells
  output value: 14
[3]; C21 breast tumor cells
  output value: 15
[3]; C23 lung tumor cells
  output value: 1
[3]; C24 lung tumor cells
  output value: −6
[3]; C25 lung tumor cells
  output value: 14
[3]; C34 breast tumor cells
  output value: 33
[3]; C54 ovarian tumor cells
  output value: 65
[3]; C62 colorectal tumor cells
  output value: 4
[3]; C69 ovarian tumor cells
  output value: −19
[3]; C71 colorectal tumor cells
  output value: 43
[3]; C72 colorectal tumor cells
  output value: −20
[3]; C77 ovarian tumor cells
  output value: 12
[3]; C81 bladder tumor cells
  output value: 75
[3]; C82 bladder tumor cells
  output value: −94
[3]; C87 bladder tumor cells
  output value: 8
[3]; C88 kidney tumor cells
  output value: 251
[3]; C90 kidney tumor cells
  output value: −47
[3]; C92 kidney tumor cells
  output value: 6

## CCOc1cc2ncc(C#N)c(Nc3ccc(OCc4ccccn4)c(Cl)c3)c2cc1NC(=O)/C=C/CN(C)C [Neratinib]
[4]; C2 breast tumor cells
  output value: −19
[4]; C21 breast tumor cells
  output value: 503
[4]; C23 lung tumor cells
  output value: 298
[4]; C24 lung tumor cells
  output value: 245
[4]; C25 lung tumor cells
  output value: 209
[4]; C34 breast tumor cells
  output value: 247
[4]; C54 ovarian tumor cells
  output value: 654
[4]; C62 colorectal tumor cells
  output value: 28
[4]; C69 ovarian tumor cells
  output value: 614
[4]; C71 colorectal tumor cells
  output value: 179
[4]; C72 colorectal tumor cells
  output value: 5
[4]; C77 ovarian tumor cells
  output value: −78
[4]; C81 bladder tumor cells
  output value: 344
[4]; C82 bladder tumor cells
  output value: 345
[4]; C87 bladder tumor cells
  output value: 334
[4]; C88 kidney tumor cells
  output value: −67
[4]; C90 kidney tumor cells
  output value: 150
[4]; C92 kidney tumor cells
  output value: 290
[5]; C2 breast tumor cells
  output value: −1
[5]; C21 breast tumor cells
  output value: 234
[5]; C23 lung tumor cells
  output value: 373
[5]; C24 lung tumor cells
  output value: 194
[5]; C25 lung tumor cells
  output value: 116
[5]; C34 breast tumor cells
  output value: 4
[5]; C54 ovarian tumor cells
  output value: 244
[5]; C62 colorectal tumor cells
  output value: 2
[5]; C69 ovarian tumor cells
  output value: 178
[5]; C71 colorectal tumor cells
  output value: 28
[5]; C72 colorectal tumor cells
  output value: 5
[5]; C77 ovarian tumor cells
  output value: 128
[5]; C81 bladder tumor cells
  output value: 13
[5]; C82 bladder tumor cells
  output value: 31
[5]; C87 bladder tumor cells
  output value: 10
[5]; C88 kidney tumor cells
  output value: 5
[5]; C90 kidney tumor cells
  output value: −32
[5]; C92 kidney tumor cells
  output value: 36
